Results: article PMC6120666 (The EMBO Journal, 2018)

How the values were obtained:
Assay in all cases: Drug affinity chromatography with c-ponatinib and LC-MS/MS (ponatinib interactome)
Type in all cases: binding
[1] = molecular target: T1, proteins of U2OS cell lysate (Homo sapiens, UniProt Q14680); details: MELK, Maternal embryonic leucine zipper kinase
T1 construct: Proteins enriched by c-ponatinib from U2OS cell lysate; endogenous in cells; host or cells: U2OS cell lysate
Outline: (§1)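 U2OS cell lysate in NP-40 lysis buffer (2 mg protein per pulldown) was incubated with amine-derivatized NHS beads for 2 h at 4 °C. Bound proteins were washed, eluted with 100 mM formic acid, reduced, alkylated and trypsin-digested, then identified by nano-UPLC–MS/MS on Orbitrap instruments with a 60 min gradient.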

[2] = molecular target: T2, proteins of U2OS cell lysate (Homo sapiens, UniProt Q9UFG5); details: C19orf25, UPF0449 protein C19orf25
T2 construct: Proteins enriched by c-ponatinib from U2OS cell lysate; endogenous in cells; host or cells: U2OS cell lysate
Outline: as §1

[3] = molecular target: T3, proteins of U2OS cell lysate (Homo sapiens, UniProt P47914); details: RPL29, 60S ribosomal protein L29
T3 construct: Proteins enriched by c-ponatinib from U2OS cell lysate; endogenous in cells; host or cells: U2OS cell lysate
Outline: as §1

[4] = molecular target: T4, proteins of U2OS cell lysate (Homo sapiens, UniProt P24534); details: EEF1B2, Elongation factor 1-beta
T4 construct: Proteins enriched by c-ponatinib from U2OS cell lysate; endogenous in cells; host or cells: U2OS cell lysate
Outline: as §1

[5] = molecular target: T5, proteins of U2OS cell lysate (Homo sapiens, UniProt P05783); details: KRT18, Keratin, type I cytoskeletal 18
T5 construct: Proteins enriched by c-ponatinib from U2OS cell lysate; endogenous in cells; host or cells: U2OS cell lysate
Outline: as §1

[6] = molecular target: T6, proteins of U2OS cell lysate (Homo sapiens, UniProt Q9Y224); details: C14orf166, UPF0568 protein C14orf166
T6 construct: Proteins enriched by c-ponatinib from U2OS cell lysate; endogenous in cells; host or cells: U2OS cell lysate
Outline: as §1

[7] = molecular target: T7, proteins of U2OS cell lysate (Homo sapiens, UniProt Q15021); details: NCAPD2, Condensin complex subunit 1
T7 construct: Proteins enriched by c-ponatinib from U2OS cell lysate; endogenous in cells; host or cells: U2OS cell lysate
Outline: as §1

[8] = molecular target: T8, proteins of U2OS cell lysate (Homo sapiens, UniProt Q14498); details: RBM39, RNA-binding protein 39
T8 construct: Proteins enriched by c-ponatinib from U2OS cell lysate; endogenous in cells; host or cells: U2OS cell lysate
Outline: as §1

[9] = molecular target: T9, proteins of U2OS cell lysate (Homo sapiens, UniProt O43353); details: RIPK2, Receptor-interacting serine/threonine-protein kinase 2
T9 construct: Proteins enriched by c-ponatinib from U2OS cell lysate; endogenous in cells; host or cells: U2OS cell lysate
Outline: as §1

[10] = molecular target: T10, proteins of U2OS cell lysate (Homo sapiens, UniProt Q0ZGT2); details: NEXN, Nexilin
T10 construct: Proteins enriched by c-ponatinib from U2OS cell lysate; endogenous in cells; host or cells: U2OS cell lysate
Outline: as §1

[11] = molecular target: T11, proteins of U2OS cell lysate (Homo sapiens, UniProt Q86UP2); details: KTN1, Kinectin
T11 construct: Proteins enriched by c-ponatinib from U2OS cell lysate; endogenous in cells; host or cells: U2OS cell lysate
Outline: as §1

[12] = molecular target: T12, proteins of U2OS cell lysate (Homo sapiens, UniProt Q14203); details: DCTN1, Dynactin subunit 1
T12 construct: Proteins enriched by c-ponatinib from U2OS cell lysate; endogenous in cells; host or cells: U2OS cell lysate
Outline: as §1

[13] = molecular target: T13, proteins of U2OS cell lysate (Homo sapiens, UniProt P11441); details: UBL4A, Ubiquitin-like protein 4A
T13 construct: Proteins enriched by c-ponatinib from U2OS cell lysate; endogenous in cells; host or cells: U2OS cell lysate
Outline: as §1

[14] = molecular target: T14, proteins of U2OS cell lysate (Homo sapiens, UniProt O95292); details: VAPB, Vesicle-associated membrane protein-associated protein B/C
T14 construct: Proteins enriched by c-ponatinib from U2OS cell lysate; endogenous in cells; host or cells: U2OS cell lysate
Outline: as §1

[15] = molecular target: T15, proteins of U2OS cell lysate (Homo sapiens, UniProt P10809); details: HSPD1, 60 kDa heat shock protein, mitochondrial
T15 construct: Proteins enriched by c-ponatinib from U2OS cell lysate; endogenous in cells; host or cells: U2OS cell lysate
Outline: as §1

[16] = molecular target: T16, proteins of U2OS cell lysate (Homo sapiens, UniProt P07437); details: TUBB;TUBB2A, Tubulin beta chain
T16 construct: Proteins enriched by c-ponatinib from U2OS cell lysate; endogenous in cells; host or cells: U2OS cell lysate
Outline: as §1

[17] = molecular target: T17, proteins of U2OS cell lysate (Homo sapiens, UniProt O00410); details: IPO5, Importin-5
T17 construct: Proteins enriched by c-ponatinib from U2OS cell lysate; endogenous in cells; host or cells: U2OS cell lysate
Outline: as §1

[18] = molecular target: T18, proteins of U2OS cell lysate (Homo sapiens, UniProt Q13200); details: captured protein PSMD2, Rank 205
T18 construct: Proteins enriched by c-ponatinib from U2OS cell lysate; endogenous in cells; host or cells: U2OS cell lysate
Outline: as §1

[19] = molecular target: T19, proteins of U2OS cell lysate (Homo sapiens, UniProt P46782); details: captured protein RPS5, Rank 160
T19 construct: Proteins enriched by c-ponatinib from U2OS cell lysate; endogenous in cells; host or cells: U2OS cell lysate
Outline: as §1

T7 sequence (Q15021 whole entry): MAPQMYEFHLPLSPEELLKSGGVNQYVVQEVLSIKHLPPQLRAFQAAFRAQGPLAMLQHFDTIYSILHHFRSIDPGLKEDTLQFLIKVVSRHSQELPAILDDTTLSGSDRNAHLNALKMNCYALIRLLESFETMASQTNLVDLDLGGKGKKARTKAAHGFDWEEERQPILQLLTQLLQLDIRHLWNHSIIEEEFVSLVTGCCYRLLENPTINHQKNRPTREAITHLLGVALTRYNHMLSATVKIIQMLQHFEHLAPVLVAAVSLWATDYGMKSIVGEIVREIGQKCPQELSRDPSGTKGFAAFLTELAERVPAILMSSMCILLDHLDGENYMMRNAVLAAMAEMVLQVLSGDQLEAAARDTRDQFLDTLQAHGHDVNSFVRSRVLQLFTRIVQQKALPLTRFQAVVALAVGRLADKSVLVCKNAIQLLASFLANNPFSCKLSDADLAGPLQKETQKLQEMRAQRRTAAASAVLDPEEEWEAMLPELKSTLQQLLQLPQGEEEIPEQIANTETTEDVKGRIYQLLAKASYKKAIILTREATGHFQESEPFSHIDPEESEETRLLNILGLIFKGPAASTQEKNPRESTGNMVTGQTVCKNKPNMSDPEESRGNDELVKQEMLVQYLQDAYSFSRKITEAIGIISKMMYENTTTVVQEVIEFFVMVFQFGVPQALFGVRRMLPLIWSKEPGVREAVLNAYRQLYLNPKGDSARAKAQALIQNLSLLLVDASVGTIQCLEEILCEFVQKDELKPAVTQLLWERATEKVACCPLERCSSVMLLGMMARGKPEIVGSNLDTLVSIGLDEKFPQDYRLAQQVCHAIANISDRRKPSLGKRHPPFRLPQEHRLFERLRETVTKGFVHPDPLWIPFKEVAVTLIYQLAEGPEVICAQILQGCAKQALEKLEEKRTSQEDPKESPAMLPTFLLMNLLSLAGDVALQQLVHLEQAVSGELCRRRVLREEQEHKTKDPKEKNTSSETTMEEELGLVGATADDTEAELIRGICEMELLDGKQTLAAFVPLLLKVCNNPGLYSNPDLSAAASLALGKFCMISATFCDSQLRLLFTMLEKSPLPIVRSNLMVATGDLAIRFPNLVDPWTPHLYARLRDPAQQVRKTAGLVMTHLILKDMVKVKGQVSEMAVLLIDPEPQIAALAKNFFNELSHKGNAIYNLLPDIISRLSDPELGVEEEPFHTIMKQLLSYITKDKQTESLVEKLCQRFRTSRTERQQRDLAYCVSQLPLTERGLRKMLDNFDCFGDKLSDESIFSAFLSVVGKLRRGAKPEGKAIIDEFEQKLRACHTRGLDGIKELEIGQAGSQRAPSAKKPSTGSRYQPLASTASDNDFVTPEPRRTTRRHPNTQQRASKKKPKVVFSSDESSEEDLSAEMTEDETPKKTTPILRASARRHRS
T10 sequence (Q0ZGT2 whole entry): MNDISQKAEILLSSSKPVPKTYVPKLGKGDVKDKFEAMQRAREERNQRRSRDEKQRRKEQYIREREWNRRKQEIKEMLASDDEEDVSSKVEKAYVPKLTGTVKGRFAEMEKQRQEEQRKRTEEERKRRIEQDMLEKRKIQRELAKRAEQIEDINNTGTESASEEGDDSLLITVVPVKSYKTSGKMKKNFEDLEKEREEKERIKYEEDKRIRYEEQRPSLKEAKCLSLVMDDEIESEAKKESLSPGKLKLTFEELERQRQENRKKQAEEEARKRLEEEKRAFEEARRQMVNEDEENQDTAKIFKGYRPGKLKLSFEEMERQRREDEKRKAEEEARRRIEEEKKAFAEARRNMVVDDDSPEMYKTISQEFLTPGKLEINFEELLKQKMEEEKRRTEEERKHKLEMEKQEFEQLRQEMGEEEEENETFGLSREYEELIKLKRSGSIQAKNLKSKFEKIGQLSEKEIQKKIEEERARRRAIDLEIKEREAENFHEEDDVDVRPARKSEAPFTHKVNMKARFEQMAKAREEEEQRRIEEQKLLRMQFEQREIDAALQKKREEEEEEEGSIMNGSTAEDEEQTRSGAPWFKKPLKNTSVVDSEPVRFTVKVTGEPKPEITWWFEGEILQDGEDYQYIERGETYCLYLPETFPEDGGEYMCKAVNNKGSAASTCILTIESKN
T11 sequence (Q86UP2 whole entry): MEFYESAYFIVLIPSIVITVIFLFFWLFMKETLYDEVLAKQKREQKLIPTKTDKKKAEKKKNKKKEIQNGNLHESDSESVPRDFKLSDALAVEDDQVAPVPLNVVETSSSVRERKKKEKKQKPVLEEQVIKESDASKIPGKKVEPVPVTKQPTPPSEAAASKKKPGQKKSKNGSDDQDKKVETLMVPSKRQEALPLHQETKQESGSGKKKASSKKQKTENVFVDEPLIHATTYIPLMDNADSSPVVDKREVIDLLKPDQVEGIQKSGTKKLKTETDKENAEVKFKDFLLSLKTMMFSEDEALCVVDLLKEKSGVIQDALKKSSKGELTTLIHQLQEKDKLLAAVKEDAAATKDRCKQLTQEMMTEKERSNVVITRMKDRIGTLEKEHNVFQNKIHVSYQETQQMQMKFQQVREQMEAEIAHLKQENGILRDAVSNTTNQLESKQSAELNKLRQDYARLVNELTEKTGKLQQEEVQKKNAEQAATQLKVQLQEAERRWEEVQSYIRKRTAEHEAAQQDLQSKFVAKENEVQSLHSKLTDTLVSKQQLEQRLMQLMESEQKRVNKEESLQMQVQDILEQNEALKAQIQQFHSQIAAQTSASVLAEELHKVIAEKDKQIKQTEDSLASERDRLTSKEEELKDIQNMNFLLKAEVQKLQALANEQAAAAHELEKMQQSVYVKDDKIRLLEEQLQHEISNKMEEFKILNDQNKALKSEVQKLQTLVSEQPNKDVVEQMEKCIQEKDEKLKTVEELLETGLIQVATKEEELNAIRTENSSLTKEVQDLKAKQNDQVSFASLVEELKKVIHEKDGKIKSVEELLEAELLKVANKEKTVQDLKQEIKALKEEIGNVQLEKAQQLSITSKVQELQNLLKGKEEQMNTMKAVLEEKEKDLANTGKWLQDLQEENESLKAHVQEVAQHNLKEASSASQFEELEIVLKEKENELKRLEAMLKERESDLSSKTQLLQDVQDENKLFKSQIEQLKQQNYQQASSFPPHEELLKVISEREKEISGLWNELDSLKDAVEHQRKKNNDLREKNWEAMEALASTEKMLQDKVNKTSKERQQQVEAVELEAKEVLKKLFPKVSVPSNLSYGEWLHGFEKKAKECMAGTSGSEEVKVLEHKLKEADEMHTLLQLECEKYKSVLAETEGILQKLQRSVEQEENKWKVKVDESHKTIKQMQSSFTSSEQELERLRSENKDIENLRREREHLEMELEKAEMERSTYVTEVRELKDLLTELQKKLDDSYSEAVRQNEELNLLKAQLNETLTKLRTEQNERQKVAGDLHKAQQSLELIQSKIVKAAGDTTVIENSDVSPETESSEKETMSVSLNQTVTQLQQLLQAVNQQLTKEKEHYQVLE
T5 sequence (P05783 whole entry): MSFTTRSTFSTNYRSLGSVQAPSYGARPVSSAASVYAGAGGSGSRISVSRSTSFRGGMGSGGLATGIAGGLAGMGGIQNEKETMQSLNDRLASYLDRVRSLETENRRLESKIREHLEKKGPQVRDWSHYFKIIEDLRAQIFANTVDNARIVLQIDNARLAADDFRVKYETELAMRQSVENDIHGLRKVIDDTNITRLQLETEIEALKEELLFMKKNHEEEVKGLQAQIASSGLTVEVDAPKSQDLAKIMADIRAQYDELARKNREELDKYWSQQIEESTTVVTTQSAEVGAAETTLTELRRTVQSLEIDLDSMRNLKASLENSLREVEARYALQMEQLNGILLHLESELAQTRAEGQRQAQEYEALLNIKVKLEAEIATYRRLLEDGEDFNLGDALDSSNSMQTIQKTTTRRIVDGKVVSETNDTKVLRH
T16 sequence (P07437 whole entry): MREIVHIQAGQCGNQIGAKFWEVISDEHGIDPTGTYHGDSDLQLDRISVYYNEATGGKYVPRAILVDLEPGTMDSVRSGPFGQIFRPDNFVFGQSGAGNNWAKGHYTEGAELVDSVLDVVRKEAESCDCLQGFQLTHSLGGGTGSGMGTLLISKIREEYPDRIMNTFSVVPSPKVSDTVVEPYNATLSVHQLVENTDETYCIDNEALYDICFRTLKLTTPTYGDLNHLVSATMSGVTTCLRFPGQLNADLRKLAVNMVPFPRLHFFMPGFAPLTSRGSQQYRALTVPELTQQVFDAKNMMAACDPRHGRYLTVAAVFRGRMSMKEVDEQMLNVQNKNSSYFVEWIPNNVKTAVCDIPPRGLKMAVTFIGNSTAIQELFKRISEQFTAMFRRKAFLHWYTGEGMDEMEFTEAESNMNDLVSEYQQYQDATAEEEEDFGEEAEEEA
T6 sequence (Q9Y224 whole entry): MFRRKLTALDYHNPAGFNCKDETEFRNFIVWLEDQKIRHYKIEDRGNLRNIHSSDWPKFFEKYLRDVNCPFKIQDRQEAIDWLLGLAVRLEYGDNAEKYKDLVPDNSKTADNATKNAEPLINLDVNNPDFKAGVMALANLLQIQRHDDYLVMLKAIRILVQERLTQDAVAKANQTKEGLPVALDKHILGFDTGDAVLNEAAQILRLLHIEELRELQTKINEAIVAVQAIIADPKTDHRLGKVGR
T2 sequence (Q9UFG5 whole entry): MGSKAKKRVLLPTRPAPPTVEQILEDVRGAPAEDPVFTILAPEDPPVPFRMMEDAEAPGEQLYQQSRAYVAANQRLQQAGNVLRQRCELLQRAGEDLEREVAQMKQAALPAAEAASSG
T14 sequence (O95292 whole entry): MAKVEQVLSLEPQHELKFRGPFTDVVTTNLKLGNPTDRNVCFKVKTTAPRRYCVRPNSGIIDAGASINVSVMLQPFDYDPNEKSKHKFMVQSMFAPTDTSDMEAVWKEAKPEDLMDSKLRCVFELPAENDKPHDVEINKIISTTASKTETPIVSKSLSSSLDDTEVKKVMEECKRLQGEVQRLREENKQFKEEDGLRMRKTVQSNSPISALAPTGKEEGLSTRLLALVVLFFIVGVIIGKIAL

Structure (SMILES)	Average LFQ PON_WT [1]	Average LFQ PON_WT [2]	Average LFQ PON_WT [3]	Average LFQ PON_WT [4]	Average LFQ PON_WT [5]	Average LFQ PON_WT [6]	Average LFQ PON_WT [7]	Average LFQ PON_WT [8]	Average LFQ PON_WT [9]	Average LFQ PON_WT [10]	Average LFQ PON_WT [11]	Average LFQ PON_WT [12]	Average LFQ PON_WT [13]	Average LFQ PON_WT [14]	Average LFQ PON_WT [15]	Average LFQ PON_WT [16]	Average LFQ PON_WT [17]	Average LFQ intensity [18]	Average LFQ intensity [19]
Cc1ccc(C(=O)Nc2ccc(CN3CCN(C)CC3)c(C(F)(F)F)c2)cc1C#Cc1cnc2cccnn12 [PON]	24.1941	20.1092	19.934	23.7043	23.283	20.4304	21.331	20.4989	27.2483	20.2843	24.25	21.0359	20.3097	20.7048	21.1431	24.4278	21.1425		
Cc1ccc(C(=O)Nc2ccc(CN3CCN(CCCN)CC3)c(C(F)(F)F)c2)cc1C#Cc1cnc2cccnn12 [c-ponatinib, reference compound]																		21.768	22.4465
